# Source: patent publication US9320760B2, “Compositions and methods of use of compounds to increase cancer patient survival time” (BioNumerik Pharmaceuticals, Inc., priority 2008, dated 2016)
# Values joined by “and” are separate entries in the source; they are usually repeats but may differ in a detail not shown here. Identical values can stand only once.
# Legend:
# [1] = biological target: T1, GST (m1-1 isotype of GST) (Homo sapiens, UniProt P09488); assay: GST assay: conjugation of reduced glutathione to 1-chloro-2,4-dinitrobenzene (CDNB), 340 nm; assay type: biochemical; conditions: for Slope Abs/min: individual assay run, 1 mM GSH, slope 8.9 to 13.1 min, 20° C.; for Slope Mean: mean of three runs (0 mM control 0.0449); for Relative Activity: normalized to reactions with no Tavocept
# T1 construct: purchased
# T1 sequence (P09488 1-218): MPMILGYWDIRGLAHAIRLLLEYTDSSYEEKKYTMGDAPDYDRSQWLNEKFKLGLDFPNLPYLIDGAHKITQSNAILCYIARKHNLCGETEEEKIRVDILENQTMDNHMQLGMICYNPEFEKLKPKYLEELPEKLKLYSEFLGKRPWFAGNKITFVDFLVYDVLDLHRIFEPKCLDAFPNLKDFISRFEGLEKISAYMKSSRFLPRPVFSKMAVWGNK
# Experimental: An in vitro assay for GST has been developed and reported. See, Meyer, D. J. and Ketterer, B., Purification of soluble human glutathione S-transferases. Methods Enzymol. 252:53-65 (1995). This assay monitors the conjugation of reduced glutathione to 1-chloro-2,4-dinitrobenzene (CDNB), as illustrated in Reaction Scheme II, below.
# Reduced thiol forms a conjugate with CDNB (extinction coefficient=9600 M^−1 cm^−1), which is detected at 340 nm. […] A typical 1 mL assay was set up by mixing 500 μL NaHPO4 buffer (200 mM, pH 6.5), 20 μL GSH (50 mM), 20 μL CDNB (50 mM), and 458 μL sterile water. Reactions were incubated at 20° C. in the cuvette holder of the spectrophotometer for approximately 5 min. prior to initiating the assay with the addition of enzyme (m1-1 isotype of GST; activity >100 U/mg). The enzyme stock purchased from the vendor was diluted 1:100 in 200 mM NaHPO4 buffer (pH 6.5), and 2 μL of the diluted enzyme was added to initiate the reaction. The final amount of enzyme added to the assay was typically 0.002 U. Assays were run at 20° C. in 1 mL quartz cuvettes (Hellma Scientific). Slopes were measured in the linear range of the assay (i.e., typically between 5 to 10 min.). […] Final reaction volumes were fixed at 1 mL by adjusting the amount of water added.
# All UV-visible assays were performed using a Varian Cary 100 spectrophotometer equipped with a thermostatic jacketed multi-cell holder. The default parameters of the Cary Win UV Enzyme Kinetics application (version 2.00) were used; with the exceptions of using both the visible and deuterium lamps, and setting the wavelength to 340 nm, the temperature to 20° C., and the maximal duration of the assay at 30 minutes.
# Raw data was obtained on a Cary 100 spectrophotometer. […] The first phase was a baseline corresponding to the time prior to addition of enzyme (typically 2-5 min. in duration). Assays in the first phase of the reaction contained only substrate, buffer and (in some assays) Tavocept™. The spectrophotometer was put in pause mode while enzyme (GST) was added and mixed into the assay reactions. No absorbance values were collected during the process of enzyme addition. The region of experimental interest was during the linear phase of the enzyme reaction, which immediately followed the addition of enzyme. The linear phase is of experimental interest because it is when the classical model of Michaelis-Menton kinetics holds true. During this phase the substrate concentration is high (>Km for enzyme) and, therefore, the rate of catalysis is independent of the substrate concentration. It was during this time that reaction rates (i.e., slopes of change in absorbance with time) were measured using the Cary 100 software. The duration of the linear phase was between 5-10 minutes, depending upon the specific reaction conditions. Reactions were considered complete when substrate concentration was no longer saturating and became a rate limiting factor of the assay. When the substrate was limiting, the reaction rate deviated from linearity. This end phase of the reaction was typically observed after 10 to 15 minutes. Absorbance and time values during the end phase of the reaction were not used in slope calculations because the reaction was effectively over at this point as the reaction no longer followed the classical Michaelis-Menton model for enzyme kinetics. Completion of the reaction on the Cary software could be detected visually by overlaying a straight line beginning at the addition of enzyme and extending past the end phase of the assay curve. Upon completion of a set of reactions data was stored as an electronic “batch” file. Sigma Plot was used specifically to show the mean of assays run in triplicate with linear regression lines and error bars illustrating standard deviation. Descriptive statistics (mean and standard deviation) were used to describe and summarize the results of the experiments. The results of these experiments are illustrated in FIG. 16. […]
# [2] = biological target: T2, GR + GSH (Homo sapiens, UniProt P00390); assay: NADPH oxidation, GR + GSH; assay type: biochemical; conditions: Disulfide 0.5 mM; n = 6
# T2 sequence (P00390 44-522): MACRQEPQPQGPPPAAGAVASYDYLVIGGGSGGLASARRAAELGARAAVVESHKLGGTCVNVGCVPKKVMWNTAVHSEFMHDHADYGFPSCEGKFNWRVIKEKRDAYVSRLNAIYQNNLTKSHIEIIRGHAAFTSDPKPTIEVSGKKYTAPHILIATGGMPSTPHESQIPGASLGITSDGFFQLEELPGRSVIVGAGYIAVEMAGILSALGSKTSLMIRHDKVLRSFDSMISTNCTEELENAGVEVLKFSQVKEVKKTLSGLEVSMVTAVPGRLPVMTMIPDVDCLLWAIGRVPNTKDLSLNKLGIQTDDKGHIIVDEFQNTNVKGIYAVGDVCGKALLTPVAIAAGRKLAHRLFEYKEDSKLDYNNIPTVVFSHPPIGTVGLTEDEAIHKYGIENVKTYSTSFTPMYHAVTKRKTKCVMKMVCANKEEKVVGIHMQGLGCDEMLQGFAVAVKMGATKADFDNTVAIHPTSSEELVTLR
# Experimental: The Formula (I) compound was utilized at a concentration of 0.5 mM.
# [3] = system: human breast, ovarian and lymphoma cancer cell lines; assay: interference with paclitaxel induced apoptosis (PARP cleavage, Bcl-2 phosphorylation, DNA laddering); assay type: cell-based; conditions: in vitro
# Source text: (§1) An important element of Tavocept's™ effectiveness as a compound in the treatment of cancer is its selectivity for normal cells versus cancer cells and its inability to interfere with the anti-cancer activity of chemotherapeutic agents.
# [4] = system: human cancer cell lines; assay: interference with paclitaxel and platinum induced cytotoxicity; assay type: cell-based
# Source text: as §1
# [5] = interference with paclitaxel and platinum regimens in animal models; assay type: in vivo
# Source text: as §1
# [6] = system: non-small cell lung carcinoma (NSCLC) cell lines; assay: cytotoxicity study in combination with chemotherapeutic agents, NSCLC cell lines; assay type: cell-based, human; conditions: Tavocept in combination with cisplatin vs cisplatin only controls
smiles,measurement,setting,value
"O=S(=O)([O-])CCSSCCS(=O)(=O)[O-].[Na+].[Na+] [Tavocept™, disodium 2,2′-dithio-bis-ethane sulfonate]",Slope Abs/min,[1]; Tavocept 1.1 mM,0.0437 Abs/min and 0.0407 Abs/min and 0.0427 Abs/min
same,Slope Mean,[1]; Tavocept 1.1 mM,0.0424 Abs/min
same,Relative Activity,[1]; Tavocept 1.1 mM,94.4%
same,Slope Abs/min,[1]; Tavocept 3.3 mM,0.0295 Abs/min and 0.0242 Abs/min and 0.0284 Abs/min
same,Slope Mean,[1]; Tavocept 3.3 mM,0.0274 Abs/min
same,Relative Activity,[1]; Tavocept 3.3 mM,61%
same,Slope Abs/min,[1]; Tavocept 10 mM,0.0155 Abs/min and 0.0158 Abs/min and 0.0139 Abs/min
same,Slope Mean,[1]; Tavocept 10 mM,0.0151 Abs/min
same,Relative Activity,[1]; Tavocept 10 mM,33.6%
same,increase in GST inhibition,[1]; Tavocept raised from 1.1 mM to 3.3 mM,~6 times
same,"NADPH Oxidation, GR + GSH",[2],2.9 ± 1.6 nmol/min/mL
same,interference with paclitaxel induced apoptosis,[3],does not interfere
same,interference with paclitaxel and platinum induced cytotoxicity,[4],did not interfere
same,interference with paclitaxel and platinum regimens,[5],did not interfere
same,cell death,[6],increase in cell death
